The structures appear in SMILES notation.

The target in this assay is T1, SHP2 protein (Homo sapiens, UniProt Q06124).
T1 sequence (Q06124 1-593): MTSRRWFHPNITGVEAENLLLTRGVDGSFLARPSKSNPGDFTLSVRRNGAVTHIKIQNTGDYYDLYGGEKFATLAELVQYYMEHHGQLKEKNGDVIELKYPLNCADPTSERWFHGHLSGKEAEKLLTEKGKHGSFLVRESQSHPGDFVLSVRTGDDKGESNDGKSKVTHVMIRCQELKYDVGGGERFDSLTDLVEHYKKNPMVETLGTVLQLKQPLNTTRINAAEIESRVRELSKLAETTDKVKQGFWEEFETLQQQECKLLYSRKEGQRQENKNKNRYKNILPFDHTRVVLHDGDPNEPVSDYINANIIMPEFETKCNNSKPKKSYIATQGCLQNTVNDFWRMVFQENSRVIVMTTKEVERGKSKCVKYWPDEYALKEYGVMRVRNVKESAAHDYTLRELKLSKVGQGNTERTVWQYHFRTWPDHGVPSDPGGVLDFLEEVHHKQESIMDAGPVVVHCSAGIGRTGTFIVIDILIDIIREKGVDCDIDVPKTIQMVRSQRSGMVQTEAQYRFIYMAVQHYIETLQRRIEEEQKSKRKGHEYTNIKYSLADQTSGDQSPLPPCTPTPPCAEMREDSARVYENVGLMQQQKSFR
Description: Measurement of SHP2 protein degradation in NCI-H358 cells (western blotting). The format is cell-based. Also noted: endogenous in cells; host or cells: NCI-H358. Conditions: harvested after 24 hours. The procedure, abridged: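 H358 cells in RPMI1640/25 mM HEPES/10% FBS, cultured 24 h, then exposed to compound at final 0.001, 0.01 and 0.1 μM for 24 h against a DMSO control. Lysates were normalised for protein by BCA and probed by western blot for SHP2, with GAPDH as loading control.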

On to `CC(=O)N[C@H](C(=O)N1C[C@H](O)C[C@H]1C(=O)NCc1ccc(-c2scnc2C)cc1OC1CCN(C(=O)C2CCN(c3nccc(Sc4nc(CO)c(N5CCC(C)(CN)CC5)nc4C)c3Cl)CC2)CC1)C(C)(C)C` [Example 81, (2S,4R)-1-((S)-2-acetamido-3,3-dimethylbutanoyl)-N-(2-((1-(1-(4-((5-(4-(aminomethyl)-4-methylpiperidin-1-yl)-6-(hydroxymethyl)-3-methylpyrazin-2-yl)thio)-3-chloropyridin-2-yl)piperidine-4-carbonyl)piperidin-4-yl)oxy)-4-(4-methylthiazol-5-yl)benzyl)-4-hydroxypyrrolidine-2-carboxamide], for which the SHP2% degradation runs as follows: (0.01 μM) 85.6%; (0.1 μM) 99.6%.
With `CC(=O)N[C@H](C(=O)N1C[C@H](O)C[C@H]1C(=O)NCc1ccc(-c2scnc2C)cc1OC1CCN(C(=O)C2CCN(c3nccc(Sc4cnc(N5CCC6(CC5)CO[C@@H](C)[C@H]6N)cn4)c3Cl)CC2)CC1)C(C)(C)C` [Example 77, (2S,4R)-1-((S)-2-acetamido-3,3-dimethylbutanoyl)-N-(2-((1-(1-(4-((5-((3S,4S)-4-amino-3-methyl-2-oxa-8-azaspiro[4.5]decan-8-yl)pyrazin-2-yl)thio)-3-chloropyridin-2-yl)piperidine-4-carbonyl)piperidin-4-yl)oxy)-4-(4-methylthiazol-5-yl)benzyl)-4-hydroxypyrrolidine-2-carboxamide], the SHP2% degradation is given as 94.4% (0.01 μM) and 98.0% (0.1 μM).
The like results for `Cc1ncsc1-c1ccc(CNC(=O)[C@@H]2C[C@@H](O)CN2C(=O)[C@H](C(C)C)n2cc(C3CC3)nn2)c(OC2CCN(C(=O)C3CCN(c4nccc(Sc5cnc(N6CCC(C)(CN)CC6)c(CO)n5)c4Cl)CC3)CC2)c1` [Example 104, (2S,4R)—N-(2-((1-(1-(4-((5-(4-(aminomethyl)-4-methylpiperidin-1-yl)-6-(hydroxymethyl)pyrazin-2-yl)thio)-3-chloropyridin-2-yl)piperidine-4-carbonyl)piperidin-4-yl)oxy)-4-(4-methylthiazol-5-yl)benzyl)-1-((S)-2-(4-cyclopropyl-1H-1,2,3-triazol-1-yl)-3-methylbutanoyl)-4-hydroxypyrrolidine-2-carboxamide] were, in that order, 98.6% and 98.0%.
The like results for `Cc1ncsc1-c1ccc(CNC(=O)[C@@H]2C[C@@H](O)CN2C(=O)[C@@H](NC(=O)CO)C(C)(C)C)c(OC2CCN(C(=O)C3CCN(c4nccc(Sc5cnc(N6CCC7(CC6)CO[C@@H](C)[C@H]7N)c(CO)n5)c4Cl)CC3)CC2)c1` [Example 89, (2S,4R)—N-(2-((1-(1-(4-((5-((3S,4S)-4-amino-3-methyl-2-oxa-8-azaspiro[4.5]decan-8-yl)-6-(hydroxymethyl)pyrazin-2-yl)thio)-3-chloropyridin-2-yl)piperidine-4-carbonyl)piperidin-4-yl)oxy)-4-(4-methylthiazol-5-yl)benzyl)-4-hydroxy-1-((S)-2-(2-hydroxyacetamido)-3,3-dimethylbutanoyl)pyrrolidine-2-carboxamide] were, in that order, 98.8% and 99.9%.
The like results for `CC(=O)N[C@H](C(=O)N1C[C@H](O)C[C@H]1C(=O)NCc1ccc(-c2scnc2C)cc1OC1CCN(C(=O)C2CCN(c3nccc(Sc4cnc(N5CCC(C)(N)CC5)cn4)c3Cl)CC2)CC1)C(C)(C)C` [Example 76, (2S,4R)-1-((S)-2-acetamido-3,3-dimethylbutanoyl)-N-(2-((1-(1-(4-((5-(4-amino-4-methylpiperidin-1-yl)pyrazin-2-yl)thio)-3-chloropyridin-2-yl)piperidine-4-carbonyl)piperidin-4-yl)oxy)-4-(4-methylthiazol-5-yl)benzyl)-4-hydroxypyrrolidine-2-carboxamide] were, in that order, 90.0% and 98.7%.
For the compound `CC(=O)N[C@H](C(=O)N1C[C@H](O)C[C@H]1C(=O)NCc1ccc(-c2scnc2C)cc1O[C@H]1CC[C@H](C(=O)N2CCC(N3CCOc4c(Sc5cnc(N6CCC7(CC6)CO[C@@H](C)[C@H]7N)cn5)cccc43)CC2)CC1)C(C)(C)C` [Example 36, (2S,4R)-1-((S)-2-acetamido-3,3-dimethylbutanoyl)-N-(2-(((1R,4S)-4-(4-(8-((5-((3S,4S)-4-amino-3-methyl-2-oxa-8-azaspiro[4.5]decan-8-yl)pyrazin-2-yl)thio)-2H-benzo[b][1,4]oxazin-4(3H)-yl)piperidine-1-carbonyl)cyclohexyl)oxy)-4-(4-methylthiazol-5-yl)benzyl)-4-hydroxypyrrolidine-2-carboxamide], the SHP2% degradation is, setting by setting: (0.01 μM) 91.0%; (0.1 μM) 100.0%.
The like results for `CC(=O)N[C@H](C(=O)N1C[C@H](O)C[C@H]1C(=O)NCc1ccc(-c2scnc2C)cc1O[C@H]1CC[C@H](C(=O)N2CCC(Nc3nccc(Sc4cnc(N5CCC(C)(N)CC5)cn4)c3Cl)CC2)CC1)C(C)(C)C` [Example 42, (2S,4R)-1-((S)-2-acetamido-3,3-dimethylbutanoyl)-N-(2-(((1R,4S)-4-(4-((4-((5-(4-amino-4-methylpiperidin-1-yl)pyrazin-2-yl)thio)-3-chloropyridin-2-yl)amino)piperidine-1-carbonyl)cyclohexyl)oxy)-4-(4-methylthiazol-5-yl)benzyl)-4-hydroxypyrrolidine-2-carboxamide] were, in that order, 95.2% and 98.7%.
The like results for `Cc1cc(C(C(=O)N2C[C@H](O)C[C@H]2C(=O)NCc2ccc(-c3scnc3C)cc2OC2CCN(C(=O)C3CCN(c4nccc(Sc5cnc(N6CCC(C)(CN)CC6)cn5)c4Cl)CC3)CC2)C(C)C)on1` (stereo partly drawn) [Example 93, (2S,4R)—N-(2-((1-(1-(4-((5-(4-(aminomethyl)-4-methylpiperidin-1-yl)pyrazin-2-yl)thio)-3-chloropyridin-2-yl)piperidine-4-carbonyl)piperidin-4-yl)oxy)-4-(4-methylthiazol-5-yl)benzyl)-4-hydroxy-1-(3-methyl-2-(3-methylisoxazol-5-yl)butanoyl)pyrrolidine-2-carboxamide] were, in that order, 99.9% and 99.9%.
As to `CC(=O)N[C@H](C(=O)N1C[C@H](O)C[C@H]1C(=O)NCc1ccc(-c2scnc2C)cc1O[C@H]1CC[C@H](C(=O)N2CCC(c3cccc(Sc4cnc(N5CCC(C)(CN)CC5)cn4)c3Cl)CC2)CC1)C(C)(C)C` [Example 46, (2S,4R)-1-((S)-2-acetamido-3,3-dimethylbutanoyl)-N-(2-(((1r,4S)-4-(4-(3-((5-(4-(aminomethyl)-4-methylpiperidin-1-yl)pyrazin-2-yl)thio)-2-chlorophenyl)piperidine-1-carbonyl)cyclohexyl)oxy)-4-(4-methylthiazol-5-yl)benzyl)-4-hydroxypyrrolidine-2-carboxamide], the SHP2% degradation was 33.8% (0.01 μM) and 93.2% (0.1 μM).
For `Cc1ncsc1-c1ccc(CNC(=O)[C@@H]2C[C@@H](O)CN2C(=O)[C@@H](NC(=O)C2(F)CC2)C(C)(C)C)c(O[C@H]2CC[C@H](C(=O)N3CCC(Nc4nccc(Sc5cnc(N6CCC7(CC6)CO[C@@H](C)[C@H]7N)cn5)c4Cl)CC3)CC2)c1` [Example 25, (2S,4R)—N-(2-(((1R,4S)-4-(4-((4-((5-((3S,4S)-4-amino-3-methyl-2-oxa-8-azaspiro[4.5]decan-8-yl)pyrazin-2-yl)thio)-3-chloropyridin-2-yl)amino)piperidine-1-carbonyl)cyclohexyl)oxy)-4-(4-methylthiazol-5-yl)benzyl)-1-((S)-2-(1-fluorocyclopropane-1-carboxamido)-3,3-dimethylbutanoyl)-4-hydroxypyrrolidine-2-carboxamide], the SHP2% degradation is listed as 94.2% (0.01 μM) and 97.0% (0.1 μM).
The like results for `Cc1cnn(C(C(=O)N2C[C@H](O)C[C@H]2C(=O)NCc2ccc(-c3scnc3C)cc2OC2CCN(C(=O)C3CCN(c4nccc(Sc5cnc(N6CCC(C)(CN)CC6)cn5)c4Cl)CC3)CC2)C(C)C)c1` (stereo partly drawn) [Example 100, (2S,4R)—N-(2-((1-(1-(4-((5-(4-(aminomethyl)-4-methylpiperidin-1-yl)pyrazin-2-yl)thio)-3-chloropyridin-2-yl)piperidine-4-carbonyl)piperidin-4-yl)oxy)-4-(4-methylthiazol-5-yl)benzyl)-4-hydroxy-1-(3-methyl-2-(4-methyl-1H-pyrazol-1-yl)butanoyl)pyrrolidine-2-carboxamide] were, in that order, −65.7% and −18.7%.
The like results for `CC(=O)N[C@H](C(=O)N1C[C@H](O)C[C@H]1C(=O)NCc1ccc(-c2scnc2C)cc1OC1CCN(C(=O)C2CCN(c3cccc(Sc4cnc(N5CCC(C)(CN)CC5)cn4)c3Cl)CC2)CC1)C(C)(C)C` [Example 82, (2S,4R)-1-((S)-2-acetamido-3,3-dimethylbutanoyl)-N-(2-((1-(1-(3-((5-(4-(aminomethyl)-4-methylpiperidin-1-yl)pyrazin-2-yl)thio)-2-chlorophenyl)piperidine-4-carbonyl)piperidin-4-yl)oxy)-4-(4-methylthiazol-5-yl)benzyl)-4-hydroxypyrrolidine-2-carboxamide] were, in that order, 94.9% and 97.4%.
